Values of other authors, collected in patent US20110124713A1, “SAM-II RIBOSWITCH AND USES THEREOF” (The Regents of the University of Colorado, A body Corporate, priority 2007, published 2011).

Tested on: SAM-II riboswitch
Details: absence vs presence of SAM; nucleotides G8-U12 in L1

C[S+](CC[C@H](N)C(=O)O)C[C@H]1O[C@@H](n2cnc3c(N)ncnc32)[C@H](O)[C@@H]1O (stereo partly shown) [SAM, S-adenosylmethionine]
ligand-dependent protections in in-line probing: strong ligand-dependent protections
